{
  "source": "patent US20120070852A1",
  "about": "“ASSAY” (IMPERIAL INNOVATIONS LIMITED, priority 2008, published 2012)",
  "target": "T1, p300 catalytic domain (Homo sapiens, UniProt Q09472)",
  "T1 construct": "40 ng/ml recombinant purified p300 catalytic domain (Millipore); purchased Millipore",
  "T1 sequence (Q09472 1287-1663 limits assumed)": "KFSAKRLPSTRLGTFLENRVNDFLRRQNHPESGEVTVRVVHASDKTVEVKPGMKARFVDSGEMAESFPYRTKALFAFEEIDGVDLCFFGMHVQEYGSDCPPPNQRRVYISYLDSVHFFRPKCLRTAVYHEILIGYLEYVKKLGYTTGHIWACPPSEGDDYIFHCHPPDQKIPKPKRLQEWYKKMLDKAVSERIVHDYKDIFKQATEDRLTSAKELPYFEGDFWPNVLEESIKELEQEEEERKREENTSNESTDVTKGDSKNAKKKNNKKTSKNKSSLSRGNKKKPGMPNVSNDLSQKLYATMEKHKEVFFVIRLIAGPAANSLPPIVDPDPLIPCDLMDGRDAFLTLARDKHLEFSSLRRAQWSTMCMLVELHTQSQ",
  "test": "QD-FRET p300 HAT assay, inhibitor response",
  "type": "biochemical",
  "conditions": "40 ng/ml p300 catalytic domain, 100 μM acetyl-CoA, 25 μM substrate peptide, 2 hr at 30° C.",
  "procedure": "p300 assay: In a final volume of 14 μl, 25 μM substrate peptide was incubated with 40 ng/ml recombinant purified p300 catalytic domain (Millipore) in the presence or absence of 100 μM acetyl-CoA (Sigma-Alrich) and different concentrations of anacardic acid in 50 mM Tris-HCl buffer (pH 8.0) containing 0.1% (w/v) BSA (reaction buffer) for 2 hr at 30° C. An aliquot of this reaction mixture was transferred to a 10 μl solution of 50 nM quantum dots and 300 nM Alexa Fluor 647-labelled anti-AcK antibody to achieve a peptide to Qdot ratio of 40:1 and the mixture allowed to incubate for 30 min at room temperature. Fluorescence intensity data were collected with […] on a SpectraMax M5 microplate reader (Molecular Devices) using a 400 nm excitation source.\nA synthetic peptide substrate for p300 containing an appending hexahistidine motif was exposed to p300 enzyme in the presence of acetyl-CoA to allow enzymatic acetylation of the peptide. […] This acetylation event was detected by means of an anti-acetyl lysine antibody labelled with a fluorescent dye, which binds selectively to the acetylated lysine residues of the quantum dot-bound peptide. […] This is indicated in the fluorescence spectra as a concomitant decrease in emission at 605 nm and enhanced emission at 670 nm from the Qdot and dye molecules respectively—see FIG. 8.",
  "data": [
    {"smiles": "CCCCCCCCCCCCCCCc1cccc(O)c1C(=O)O", "note": "[anacardic acid]", "values": [
      {"measurement": "effect of serial dilutions of inhibitor on dye-specific emission at 670 nm (energy transfer)", "value": "dose-dependent decrease in dye-specific emission at 670 nm"}
    ]}
  ]
}
